According to US7417156B2, “Orally active, antimalarial, anticancer, artemisinin-derived trioxane dimers” (Johns Hopkins University, priority 2002, dated 2008):

Columns and labels:
OVCAR-8 = assay: NCI 60 cell line panel screen (SRB); assay type: cell-based, human; details: for Log10LC50: LC50: PG=−50; for Log10GI50: Ovarian Cancer, OVCAR-8
OVCAR-5 = assay: NCI 60 cell line panel screen (SRB); assay type: cell-based, human; details: for Log10LC50 / Log10TGI50: OVCAR-5 (Ovarian Cancer); for Log10LC50: LC50: PG=−50; for Log10TGI50: TGI: PG=0; for Log10GI50: Ovarian Cancer, OVCAR-5
SNB-19 = assay: NCI 60 cell line panel screen (SRB); assay type: cell-based, human; details: for Log10GI50: CNS Cancer, SNB-19; for Log10LC50 / Log10TGI50: SNB-19 (CNS Cancer); for Log10LC50: LC50: PG=−50; for Log10TGI50: TGI: PG=0
UACC-257 = assay: NCI 60 cell line panel screen (SRB); assay type: cell-based, human; details: for Log10GI50: Melanoma, UACC-257; for Log10LC50 / Log10TGI50: UACC-257 (Melanoma); for Log10LC50: LC50: PG=−50; for Log10TGI50: TGI: PG=0
K-562 = assay: NCI 60 cell line panel screen (SRB); assay type: cell-based, human; details: for Log10LC50 / Log10TGI50: K-562 (Leukemia); for Log10LC50: LC50: PG=−50; for Log10TGI50: TGI: PG=0; for Log10GI50: Leukemia, K-562
CCRF-CEM = assay: NCI 60 cell line panel screen (SRB); assay type: cell-based, human
NCI-H460 = assay: NCI 60 cell line panel screen (SRB); assay type: cell-based, human; details: for Log10LC50 / Log10TGI50: NCI-H460 (Non-Small Cell Lung Cancer); for Log10LC50: LC50: PG=−50; for Log10TGI50: TGI: PG=0; for Log10GI50: Non-Small Cell Lung Cancer, NCI-H460
SK-MEL-2 = assay: NCI 60 cell line panel screen (SRB); assay type: cell-based, human; details: for Log10LC50: SK-MEL2 (Melanoma), LC50: PG=−50
MOLT-4 = details: for Log10GI50: Leukemia, MOLT-4; for Log10LC50 / Log10TGI50: MOLT-4 (Leukemia); for Log10LC50: LC50: PG=−50; for Log10TGI50: TGI: PG=0; for concentration for cytotoxicity (percentage growth −50): human, 48 h
Procedure: Growth Inhibition. […] The screening assay is performed on 96-well microtitre plates. Relatively high initial inoculation densities are used, in order to permit measurement of “time-zero” values and to enhance the screen's ability to detect and provide some differentiation between growth inhibition and cytotoxic response parameters. […] The inoculated microtitre plates are pre-incubated for 24 hours at 37° C. prior to drug additions. The five drug dilutions tested routinely range from 10^−4 to 10^−8 molar. Higher or lower concentration ranges may be selected on a non-routine basis if appropriate solubility and/or prior biological information or other screening data so dictate. Duplicate wells are prepared for all concentrations, (concentration is often denoted by placing brackets around a number); “time-zero” and “no drug” controls are also provided for each test. The minimum amount of compound required for a one-time evaluation in the routine screen can be calculated from the knowledge that each test requires a total of approximately 40 ml (0.04 liter) of cell culture medium containing the highest desired drug concentration. […] After a 48 hour incubation (37° C.) with the test compound, the cells are fixed in situ to the bottoms of the microtitre wells by addition of 50 μl of either 50% trichloroacetic acid (for adherent cell lines) or 80% trichloroacetic acid (for settled cell suspension lines), followed by incubation for 60 minutes at 4° C. The cellular protein in each well is assayed using a sulforhodamine B (SRB) stain procedure. Briefly, after discarding the supernatants, the microtitre plates are washed 5 times with deionized water and air-dried. […] Unbound SRB is removed by washing 5 times with 1% acetic acid. […] SRB is a bright pink anionic dye which, in dilute acetic acid, binds electrostatically to the basic amino acids of TCA-fixed cells. Cryopreserved master stocks of all the lines are maintained, and cultures used for screening are replaced from the master stock after no more than twenty passages in the screening laboratory. The cell line panel consists of 60 lines, organized into nine, disease-related subpanels including leukemia, non-small-cell lung cancer, colon, CNS, melanoma, ovarian, renal, prostate and breast cancers.
At this value the increase from time tzero, in the number or mass of cells in the test well is only 50% as much as the corresponding increase in the control well during this period of the experiment, see Table III. A drug effect of this intensity is interpreted as primary growth inhibition.
At this value the number or mass of cells in the well at the end of the experiment equals the number or mass of cells in the well at time tzero, see Table IV. A drug effect of this intensity is regarded as cytostasis.
At this value, the number or mass of cells in the test well at the end of the experiment is half that at time tzero, see Table V. This is interpreted as cytotoxicity.
Dose response curves, shown in the above mentioned Figures, are obtained by exposing various cancer cell lines to compounds having a known concentration ([log10M]), as discussed in detail above, and then plotting the percentage growth of each cell line for each concentration. […] Percentage growth is determined by dividing the number or mass of cells in the test well by the number or mass of cells in a control well. […] As discussed previously, the five drug dilutions routinely tested range from 10^−4 to […].

TK-10 = assay: NCI 60 cell line panel screen (SRB); assay type: cell-based, human; details: for Log10GI50: Renal Cancer, TK-10
RPMI-8226 = assay: NCI 60 cell line panel screen (SRB); assay type: cell-based, human; details: for Log10GI50: Leukemia, RPMI-8226; for Log10LC50 / Log10TGI50: RPMI-8226 (Leukemia); for Log10LC50: LC50: PG=−50; for Log10TGI50: TGI: PG=0
SF-539 = assay: NCI 60 cell line panel screen (SRB); assay type: cell-based, human
SNB-75 = assay: NCI 60 cell line panel screen (SRB); assay type: cell-based, human
SK-MEL-28 = assay: NCI 60 cell line panel screen (SRB); assay type: cell-based, human
HOP-92 = assay: NCI 60 cell line panel screen (SRB); assay type: cell-based, human
HS 578T = assay: NCI 60 cell line panel screen (SRB); assay type: cell-based, human
NCI-H23 = assay: NCI 60 cell line panel screen (SRB); assay type: cell-based, human

SMILES: CC(=O)O[C@H]1C(=O)[C@@]2(C)[C@H]([C@H](OC(=O)c3ccccc3)[C@]3(O)C[C@H](OC(=O)[C@H](O)[C@@H](NC(=O)c4ccccc4)c4ccccc4)C(C)=C1C3(C)C)[C@]1(OC(C)=O)CO[C@@H]1C[C@@H]2O [Paclitaxel, paclitaxel, reference compound]
- Log10LC50 (OVCAR-8; OVCAR-8 (Ovarian Cancer)): >−4.00 log10M
- Log10GI50 (OVCAR-8): −10.75
- Log10LC50 (OVCAR-5): >−4.00 log10M
- Log10TGI50 (OVCAR-5): −4.92 log10M
- Log10GI50 (OVCAR-5): −9.38
- Log10GI50 (SNB-19): −8.98
- Log10LC50 (SNB-19): >−4.00 log10M
- Log10TGI50 (SNB-19): >−4.00 log10M
- Log10GI50 (UACC-257): −10.30
- Log10LC50 (UACC-257): −4.03 log10M
- Log10TGI50 (UACC-257): −4.52 log10M
- Log10LC50 (K-562): >−4.00 log10M
- Log10TGI50 (K-562): >−4.00 log10M
- Log10GI50 (K-562): −10.83
- Log10LC50 (CCRF-CEM; CCRF-CEM (Leukemia), LC50: PG=−50): >−4.00 log10M
- Log10TGI50 (CCRF-CEM; CCRF-CEM (Leukemia), TGI: PG=0): >−4.00 log10M
- Log10GI50 (CCRF-CEM; Leukemia, CCRF-CEM): −11.61
- Log10LC50 (NCI-H460): >−4.00 log10M
- Log10TGI50 (NCI-H460): −4.92 log10M
- Log10GI50 (NCI-H460): −12.16
- Log10GI50 (SK-MEL-2; Melanoma, SK-MEL-2): −9.53
- Log10LC50 (SK-MEL-2): >−4.00 log10M
- Log10GI50 (MOLT-4): −11.07
- Log10LC50 (MOLT-4): >−4.00 log10M
- Log10TGI50 (MOLT-4): >−4.00 log10M
- drug concentration for primary growth inhibition (percentage growth +50) (MOLT-4; MOLT-4, from dose response curves FIGS. 7a-7i): 10^−11 molar
- concentration for cytotoxicity (percentage growth −50) (MOLT-4): greater than 10^−4 M
- Log10GI50 (TK-10): −7.89
- Log10GI50 (RPMI-8226): <−13.00
- Log10LC50 (RPMI-8226): >−4.00 log10M
- Log10TGI50 (RPMI-8226): >−4.00 log10M
- Log10GI50 (SF-539; CNS Cancer, SF-539): −11.09
- Log10LC50 (SF-539; SF-539 (CNS Cancer), LC50: PG=−50): >−4.00 log10M

SMILES: C[C@@H]1CC[C@H]2[C@@H](C)C(=O)O[C@@H]3O[C@]4(C)CC[C@@H]1[C@]32OO4 [Artemisinin]
- Log10LC50 (OVCAR-8; OVCAR-8 (Ovarian Cancer)): >−4.00 log10M
- Log10TGI50 (OVCAR-8; OVCAR-8 (Ovarian Cancer), TGI: PG=0): >−4.00 log10M
- Log10GI50 (OVCAR-8): >−4.00
- Log10LC50 (OVCAR-5): >−4.00 log10M
- Log10TGI50 (OVCAR-5): >−4.00 log10M
- Log10GI50 (OVCAR-5): >−4.00
- Log10GI50 (SNB-19): >−4.00
- Log10LC50 (SNB-19): >−4.00 log10M
- Log10TGI50 (SNB-19): >−4.00 log10M
- Log10GI50 (UACC-257): >−4.00
- Log10LC50 (UACC-257): >−4.00 log10M
- Log10TGI50 (UACC-257): >−4.00 log10M
- Log10LC50 (K-562): >−4.00 log10M
- Log10TGI50 (K-562): >−4.00 log10M
- Log10GI50 (K-562): −4.33
- Log10GI50 (SNB-75; CNS Cancer, SNB-75): >−4.00
- Log10LC50 (SNB-75; SNB-75 (CNS Cancer), LC50: PG=−50): >−4.00 log10M
- Log10TGI50 (SNB-75; SNB-75 (CNS Cancer), TGI: PG=0): >−4.00 log10M
- Log10GI50 (SK-MEL-28; Melanoma, SK-MEL-28): >−4.00
- Log10LC50 (SK-MEL-28; SK-MEL-28 (Melanoma), LC50: PG=−50): >−4.00 log10M
- Log10TGI50 (SK-MEL-28; SK-MEL-28 (Melanoma), TGI: PG=0): >−4.00 log10M
- Log10LC50 (HOP-92; HOP-92 (Non-Small Cell Lung Cancer), LC50: PG=−50): >−4.00 log10M
- Log10TGI50 (HOP-92; HOP-92 (Non-Small Cell Lung Cancer), TGI: PG=0): >−4.00 log10M
- Log10GI50 (HOP-92; Non-Small Cell Lung Cancer, HOP-92): >−4.00
- Log10GI50 (HS 578T; Breast Cancer, HS 578T): >−4.00
- Log10LC50 (HS 578T; HS 578T (Breast Cancer), LC50: PG=−50): >−4.00 log10M
- Log10TGI50 (HS 578T; HS 578T (Breast Cancer), TGI: PG=0): >−4.00 log10M
- Log10LC50 (NCI-H460): >−4.00 log10M
- Log10TGI50 (NCI-H460): >−4.00 log10M
- Log10GI50 (NCI-H460): >−4.00
- Log10LC50 (SK-MEL-2): >−4.00 log10M
- Log10TGI50 (SK-MEL-2; SK-MEL-2 (Melanoma), TGI: PG=0): >−4.00 log10M
- Log10GI50 (MOLT-4): −4.73
- Log10LC50 (MOLT-4): >−4.00 log10M
- Log10TGI50 (MOLT-4): >−4.00 log10M
- concentration for cytotoxicity (percentage growth −50) (MOLT-4): greater than 10^−4 M
- Log10LC50 (NCI-H23; NCI-H23 (Non-Small Cell Lung Cancer), LC50: PG=−50): >−4.00 log10M
- Log10TGI50 (NCI-H23; NCI-H23 (Non-Small Cell Lung Cancer), TGI: PG=0): >−4.00 log10M
- Log10GI50 (NCI-H23; Non-Small Cell Lung Cancer, NCI-H23): >−4.00
- Log10GI50 (TK-10): >−4.00
- Log10LC50 (TK-10; TK-10 (Renal Cancer), LC50: PG=−50): >−4.00 log10M
- Log10TGI50 (TK-10; TK-10 (Renal Cancer), TGI: PG=0): >−4.00 log10M
- Log10GI50 (RPMI-8226): >−4.00
- Log10LC50 (RPMI-8226): >−4.00 log10M
- Log10TGI50 (RPMI-8226): >−4.00 log10M
